Assays:
[1] = system: VSSA, MRSA, VanA and VanB VRE; conditions: cited from earlier work
[2] = system: vancomycin-sensitive Staphylococcus aureus (VSSA strain ATCC 25923); conditions: previously reported data; cited from earlier work
[3] = system: VanA VRE (E. faecalis BM 4166 and E. faecium ATCC BAA-2317); experiment: Cell wall permeability assay (propidium iodide uptake); type: cell-based, Enterococcus faecalis; Enterococcus faecium; conditions: 10 μM compound
[4] = system: vancomycin-resistant Enterococcus faecalis (VanB VRE, strain ATCC 51299); conditions: previously reported data; cited from earlier work
[5] = system: methicillin and oxacillin-resistant Staphylococcus aureus subsp. aureus (MRSA strain ATCC 43300); conditions: previously reported data; cited from earlier work
[6] = system: Enterococcus faecium (VanA VRE, ATCC BAA-2317); conditions: previously reported data; cited from earlier work
[7] = system: VanA VRE (E. faecalis BM 4166 and E. faecium ATCC BAA-2317); experiment: Cell wall biosynthesis inhibition assay (accumulation of UDPMurNAc-pp 19); type: cell-based, Enterococcus faecalis; Enterococcus faecium; conditions: 35 μg/mL, tetracycline pretreated VanA VRE, 30 minutes, 37° C.
Source text: The inhibition of bacterial cell wall synthesis was established in an assay that quantitates the accumulation of the peptidoglycan precursor UDP-N-acetyl-muramyl-depsipentapeptide (Compound 19, UDPMurNAc-pp), resulting from inhibited cell wall incorporation following antibiotic treatment. […] This procedure was reduced in scale and modified to enlist reverse-phase HPLC separation, UV detection, and calibration curve determination of the amount of isolated 19, permitting use with limited sample sizes. A larger scale isolation and full characterization of 19 provided the material needed to establish a linear calibration curve.
The bacterial suspension was heated at 100° C. for 15 minutes to release cytosolic 19. The entire supernatant was analyzed by semi-preparative reverse-phase HPLC with a single injection and the amount of 19 was quantitated with use of the calibration curve.
Cultures of vancomycin-resistant Enterococcus faecalis (VanA VRE, BM4166) and Enterococcus faecium (VanA VRE, ATCC BAA-2317) were inoculated and grown in an orbital shaker at 37° C. in 100% brain-heart infusion broth for 12 hours. The above bacterial solution was subjected to a subculture to obtain fresh mid-log phase bacterial cells (total volume of bacterial suspension=5 mL, incubation time=6 hours, OD600=0.6). […] Vancomycin analogues were added and the mixture was incubated at 37° C. for a further 30 minutes.
After the bacteria were harvested (3000 rpm, 4° C., 20 minutes), this bacterial precipitate was washed and resuspended in 5 mM glucose and 5 mM HEPES buffer (500 μL, 1:1, pH=7.2). This bacterial suspension was heated at 100° C. for 15 minutes and centrifuged (13000 rpm, 25° C., 10 minutes). […] [*****Allen et al., Antimicrob. Agents Chemother. 1996, 40(10):2356-2362]; Liu et al., J. Am. Chem. Soc. 2001, 123:9916-9917.] The amount of UDP Mur N-Ac pentapeptide (19) was quantified by use of calibration curves for E. faecalis BM4166, and for E. faecium ATCC BAA-2317 based on the area under the curve (AUC).

[8] = system: vancomycin-resistant Enterococcus faecalis (VanA VRE, BM4166); conditions: BM 4166; previously reported data; cited from earlier work

CN[C@H](CC(C)C)C(=O)N[C@H]1C(=O)N[C@@H](CC(N)=O)C(=O)N[C@H]2C(=S)N[C@@H]3C(=O)N[C@H](C(=O)N[C@H](C(=O)O)c4cc(O)cc(O)c4-c4cc3ccc4O)[C@H](O)c3ccc(c(Cl)c3)Oc3cc2cc(c3OC2OC(CO)C(O)[C@H](O)[C@@H]2O[C@H]2CC(C)(NCc3ccc(-c4ccc(Cl)cc4)cc3)[C@H](O)[C@H](C)O2)Oc2ccc(cc2Cl)[C@H]1O (some centres unmarked) [Compound 6]
MICs (range over panel) [1]: 2 to 4 µg/mL
Antimicrobial Activity, MIC, sensitive S. aureus [2]: 2 µg/mL
induced cell membrane permeability (propidium uptake) [3]: Neither compound significantly impacts membrane permeability
Antimicrobial Activity, MIC, VanB E. faecalis [4]: 2 µg/mL
Antimicrobial Activity, MIC, MRSA S. aureus [5]: 2 µg/mL
Antimicrobial Activity, MIC, VanA E. faecium [6]: 4 µg/mL
inhibition of bacterial cell wall synthesis (accumulation of 19) [7]: inhibit cell wall biosynthesis to a similar extent
Antimicrobial Activity, MIC, VanA E. faecalis [8]: 4 µg/mL

Source: patent US10934326B2, “Peripheral modifications on pocket-redesigned vancomycin analogs synergistically improve antimicrobial potency and durability” (priority 2016, dated 2021)
